Experimental data taken from article PMC5316400, “Validation of precision-cut liver slices to study drug-induced cholestasis: a transcriptomics approach” (Archives of Toxicology, 2016).

Tests used:
[1] = system: Genes involved in hepatic cholestasis pathway; test: Microarray gene expression in human PCLS exposed to cholestatic drugs: hepatic cholestasis pathway genes; conditions: 24 h, 60 μM bile acid mix
Experimental: (§1) Precision-cut liver slices of 5 mm diameter and 250 μm thickness were prepared (de Graaf et al. [2010]). At this thickness, full penetration of substrates has been shown. PCLS were made using the Krumdieck tissue slicer (Alabama R&D, Munford, AL, USA) in ice-cold Krebs buffer at pH 7.42, enriched with glucose to a final concentration of 25 mM, saturated with carbogen (95 % O2/5 % CO2). Immediately after the slices were made, they were placed in ice-cold University of Wisconsin organ preservation solution (UW, Dupont Critical Care, Waukegan, IL, USA) and stored on ice until the beginning of the experiment. Slices were pre-incubated individually in 12-well plates in 1.3 ml of Williams Medium E with glutamax-1 (Gibco, Invitrogen, Paisley, Scotland) supplemented with 25 mM D-glucose and 50 μg/ml gentamycin (Gibco, Invitrogen, Paisley, Scotland). In the incubator (Sanyo CO2/O2 Incubator, PANASONIC, Secaucus, NJ, USA), the plates were gently shaken (90 times/min) for 1 h under 80 % O2 and 5 % CO2 atmosphere at 37 °C. This pre-incubation allows the slices to restore their ATP levels. […] The plates were incubated under the same conditions for 24 h. All incubation conditions were carried out in triplicate. Each experiment was performed in slices of 6 different human livers (Table 1). Slices were harvested for ATP assay in 100 mM Tris buffer with 2 mM EDTA and for RNA isolation in RNAlater. The bile acid mix was added to the medium in order to create an environment similar to the physiological concentration in the portal vein. The composition of the serum bile acids was according to Scherer et al. ([2009]). Pilot experiments were performed to find out the non-toxic concentration of the bile acid mix.
(§2) Maxwell® 16 LEV Total RNA purification kit (Promega, The Netherlands) with Maxwell® 16 LEV Instrument was used to isolate RNA from the samples. Immediately after isolation, the RNA quality was assessed by measuring the 260/280 and 260/230 ratios, and the concentration was measured with the ND-1000 spectrophotometer (Fisher Scientific, Landsmeer, The Netherlands). The quality (RIN value) and quantity of the RNA were determined by high-throughput Caliper GX LabChip RNA kit (Caliper).
(§3) Ambion Illumina Total Prep RNA kit was used to transcribe 300 ng RNA to cRNA according to the manufacturer’s instructions. A total of 750 ng of cRNA was hybridized at 58 °C for 16 h to the Illumina HumanHT-12 v4 Expression BeadChips. BeadChips were scanned using Iscan software, and IDAT files were generated (Illumina, San Diego, CA, USA).
(§4) GenomeStudio software (Illumina) was used to read the IDAT files and generate raw expression values. The ArrayAnalysis web service (www.arrayanalysis.org/) was used for further preprocessing the data, which uses lumi R package (Eijssen et al. [2013]). Raw gene expression data were background-corrected (bgAdjust), variance-stabilized (VST) and normalized by quantile normalization. After normalization, the data were corrected for batch differences owing to RNA isolation and hybridization using the ComBat method implemented in the swamp package in R (Lauss et al. [2013]). Differentially expressed genes in slices exposed to the cholestatic drugs in the presence of bile acids versus the slices exposed to vehicle (DMSO) in the presence of bile acids were identified using the unpaired moderated t test in the limma package (Ritchie et al. [2015]). Genes that are regulated with a criterion of fold change of 1.5 (≤ or ≥1.5), and FDR-corrected p value ≤0.05 (Benjamini and Hochberg method) were chosen for pathway analysis. To compare our data with the scarcely available human in vivo data, human in vivo late-stage cholestasis data were downloaded from the Gene Expression Omnibus database (GSE46960).

[2] = system: Genes involved in the FXR pathway; test: Microarray gene expression in human PCLS exposed to cholestatic drugs: FXR pathway genes; conditions: 24 h, 60 μM bile acid mix
Experimental: as §1, §2, §3, §4

[3] = system: Genes involved in unfolded protein response (UPR); test: Microarray gene expression in human PCLS exposed to cholestatic drugs: unfolded protein response genes; type: cell-based; conditions: 24 h, 60 μM bile acid mix
Experimental: as §1, §2, §3, §4

[4] = system: human precision-cut liver slices (PCLS); test: Transcriptomics of human PCLS: differentially regulated genes; type: cell-based; conditions: fold change of 1.5 and adjusted p value 0.05, 24 h, 60 μM bile acid mix
Experimental: as §1, §2, §3, §4

[5] = adult patients, therapeutic dose, systemic blood; no reference given; cited from earlier work
[6] = C max in systemic blood of adult patients after a therapeutic dose; conditions: highest toxic concentration tested in human PCLS vs C max in adult patients

Q: Which results are given for S=C=Nc1cccc2ccccc12 [AN, Alpha-naphthylisothiocyanate]?
A: ABCB4 fold change ([1]; 75 μM): −2.1; ABCB11 fold change ([1]; 75 μM): −1.3; ABCC3 fold change ([1]; 75 μM): −1.2; ABCG5 fold change ([1]; 75 μM): −1.6; ABCG8 fold change ([1]; 75 μM): −2.3; CYP8B1 fold change ([1]; 75 μM): −3.4; CYP27A1 fold change ([1]; 75 μM): −1.4; GCGR fold change ([1]; 75 μM): −1.9; IL1B fold change ([1]; 75 μM): −1.2; IL1RL1 fold change ([1]; 75 μM): 2.3; IL1RN fold change ([1]; 75 μM): 1.1; IRAK2 fold change ([1]; 75 μM): 1.6; JUN fold change ([1]; 75 μM): 1.3; NR0B2 fold change ([1]; 75 μM): −1.2; NR1H3 fold change ([1]; 75 μM): −1.1; NR1H4 fold change ([1]; 75 μM): −1.1; PPRC1 fold change ([1]; 75 μM): 1.6; RXRA fold change ([1]; 75 μM): −1.6; SLC22A7 fold change ([1]; 75 μM): −2.9; TNFRSF1B fold change ([1]; 75 μM): −1.5; ABCB4 fold change ([2]; 75 μM): −2.1; ABCB11 fold change ([2]; 75 μM): −1.8; ABCG5 fold change ([2]; 75 μM): −1.5; ABCG8 fold change ([2]; 75 μM): −2.3; APOC2 fold change ([2]; 75 μM): −1.8; APOC4 fold change ([2]; 75 μM): −1.8; APOF fold change ([2]; 75 μM): −1.9; BAAT fold change ([2]; 75 μM): −1.8; C3 fold change ([2]; 75 μM): −1.7; CYP8B1 fold change ([2]; 75 μM): −3.5; CYP27A1 fold change ([2]; 75 μM): −1.3; FASN fold change ([2]; 75 μM): −1.9; FBP1 fold change ([2]; 75 μM): −1.8; FETUB fold change ([2]; 75 μM): −2.0; FGA fold change ([2]; 75 μM): −2.1; ITIH4 fold change ([2]; 75 μM): −1.9; KNG1 fold change ([2]; 75 μM): −2.3; NR0B2 (SHP) fold change ([2]; 75 μM): −1.8; NR1H3 (LXR) fold change ([2]; 75 μM): −1.8; NR1H4 (FXR) fold change ([2]; 75 μM): −1.8; PON1 fold change ([2]; 75 μM): −2.0; RXRA fold change ([2]; 75 μM): −1.5; SCARB1 fold change ([2]; 75 μM): −2.2; SDC1 fold change ([2]; 75 μM): −2.0; SERPINF2 fold change ([2]; 75 μM): −1.8; SLC22A7 fold change ([2]; 75 μM): −2.9; SLC51B fold change ([2]; 75 μM): −1.9; SULT2A1 fold change ([2]; 75 μM): −2.1; ATF4 fold change ([3]; 75 μM): 2.3; DDIT3 (CHOP) fold change ([3]; 75 μM): 2.9; DNAJB9 fold change ([3]; 75 μM): 2.7; ERN1 fold change ([3]; 75 μM): 1.5; HSPA9 fold change ([3]; 75 μM): 1.9; HSPH1 fold change ([3]; 75 μM): 2.0; INSIG1 fold change ([3]; 75 μM): −2.5; NFE2L2 fold change ([3]; 75 μM): 1.5; SYVN1 fold change ([3]; 75 μM): 1.5; Number of regulated genes ([4]; 25 μM): 2; Number of regulated genes ([4]; 50 μM): 183; Number of regulated genes ([4]; 75 μM): 458

Q: Which results are given for C[C@]12CCC(=O)C=C1CC[C@@H]1[C@@H]2CC[C@@]2(C)[C@H]1CC[C@]2(C)O [MT, methyl testosterone]?
A: ABCB4 fold change ([1]; 100 μM): −3.6; ABCB11 fold change ([1]; 100 μM): −1.2; ABCC3 fold change ([1]; 100 μM): −1.8; ABCG5 fold change ([1]; 100 μM): −1.7; ABCG8 fold change ([1]; 100 μM): −1.4; CYP8B1 fold change ([1]; 100 μM): 1.1; CYP27A1 fold change ([1]; 100 μM): −1.5; GCGR fold change ([1]; 100 μM): −1.1; IL1B fold change ([1]; 100 μM): −1.2; IL1RL1 fold change ([1]; 100 μM): 3.5; IL1RN fold change ([1]; 100 μM): 1.9; IRAK2 fold change ([1]; 100 μM): 1.0; JUN fold change ([1]; 100 μM): 1.6; NR0B2 fold change ([1]; 100 μM): 1.0; NR1H3 fold change ([1]; 100 μM): −1.3; NR1H4 fold change ([1]; 100 μM): −1.1; PPRC1 fold change ([1]; 100 μM): 1.1; RXRA fold change ([1]; 100 μM): −1.7; SLC22A7 fold change ([1]; 100 μM): −1.1; TNFRSF1B fold change ([1]; 100 μM): 1.1; ABCB4 fold change ([2]; 100 μM): −3.6; ABCB11 fold change ([2]; 100 μM): −1.7; ABCG5 fold change ([2]; 100 μM): −1.6; ABCG8 fold change ([2]; 100 μM): −1.4; APOC2 fold change ([2]; 100 μM): 1.0; APOC4 fold change ([2]; 100 μM): −1.4; APOF fold change ([2]; 100 μM): 1.1; BAAT fold change ([2]; 100 μM): −1.4; C3 fold change ([2]; 100 μM): −2.0; CYP8B1 fold change ([2]; 100 μM): 1.1; CYP27A1 fold change ([2]; 100 μM): −1.5; FASN fold change ([2]; 100 μM): 1.2; FBP1 fold change ([2]; 100 μM): 1.2; FETUB fold change ([2]; 100 μM): −1.3; FGA fold change ([2]; 100 μM): 1.9; ITIH4 fold change ([2]; 100 μM): −1.4; KNG1 fold change ([2]; 100 μM): −1.7; NR0B2 (SHP) fold change ([2]; 100 μM): 1.3; NR1H3 (LXR) fold change ([2]; 100 μM): −1.0; NR1H4 (FXR) fold change ([2]; 100 μM): −1.2; PON1 fold change ([2]; 100 μM): 1.1; RXRA fold change ([2]; 100 μM): −1.7; SCARB1 fold change ([2]; 100 μM): −1.6; SDC1 fold change ([2]; 100 μM): −1.8; SERPINF2 fold change ([2]; 100 μM): −1.2; SLC22A7 fold change ([2]; 100 μM): −1.5; SLC51B fold change ([2]; 100 μM): −2.8; SULT2A1 fold change ([2]; 100 μM): 1.7; ATF4 fold change ([3]; 100 μM): 1.2; DDIT3 (CHOP) fold change ([3]; 100 μM): 2.9; DNAJB9 fold change ([3]; 100 μM): 1.3; ERN1 fold change ([3]; 100 μM): 3.0; HSPA9 fold change ([3]; 100 μM): 1.3; HSPH1 fold change ([3]; 100 μM): 1.7; INSIG1 fold change ([3]; 100 μM): −1.5; NFE2L2 fold change ([3]; 100 μM): −1.1; SYVN1 fold change ([3]; 100 μM): 1.1; Cmax [5]: 130 nM; toxic concentration used in PCLS study relative to C max [6]: ~ 770 × C max; Number of regulated genes ([4]; 25 μM): 11; Number of regulated genes ([4]; 50 μM): 38; Number of regulated genes ([4]; 100 μM): 233
